Measurements published in patent US9675549B2, “Tablet containing composite with cyclodextrin” (AMBIT BIOSCIENCES CORPORATION, priority 2012, dated 2017).

Assay: Examination of molecular state of AC220 in aqueous solution (1H chemical shift displacements, NOESY)
Format: physicochemical
Procedure: The molecular state of AC220 in the aqueous solution was examined. […] The protons of d and e could not be analyzed due to the overlapping with other proton signals.
Furthermore, the Hill coefficient was calculated from the analysis of the ^1H chemical shift displacements: the value was greater than 1, and indicated a network formation. It was confirmed that the addition of methanol to the AC220 aqueous solution inhibited the gel formation, and that the network was formed by intermolecular hydrogen bonding.

CC(C)(C)c1cc(NC(=O)Nc2ccc(-c3cn4c(n3)sc3cc(OCCN5CCOCC5)ccc34)cc2)no1 [AC220, N-(5-tert-butyl-isoxazol-3-yl)-N′-{4-[7-(2-morpholin-4-yl-ethoxy)imidazo[2,1-b][1,3]benzothiazol-2-yl]phenyl}urea]
Hill coefficient (calculated from 1H chemical shift displacements of AC220 aqueous solutions, indicates network formation): greater than 1
Solubility in water (gelation of the aqueous solution with increasing concentration): soluble
